# Results reported in PMC11435058, “Synthesis of New Thiazole-Privileged Chalcones as Tubulin Polymerization Inhibitors with Potential Anticancer Activities” (Pharmaceuticals, 2024).
# Read-outs that look alike come from different tables or passages of the source.
# Experiments:
# HS 578T = experiment: NCI-60 anticancer screen (SRB; single dose and five doses); details: Homo sapiens
# DU-145 = experiment: as above; details: Homo sapiens
# KM12 = experiment: as above; details: Homo sapiens
# ACHN = experiment: as above; details: Homo sapiens
# A549/ATCC = experiment: as above; details: Homo sapiens
# SF-539 = experiment: as above; details: Homo sapiens
# SN12C = experiment: as above; details: Homo sapiens
# SK-MEL-28 = experiment: as above; details: Homo sapiens
# SR = experiment: as above; details: Homo sapiens
# SNB-75 = experiment: as above
# OVCAR-5 = experiment: as above; details: Homo sapiens
# MDA-MB-231/ATCC = experiment: as above; details: Homo sapiens
# NCI-H522 = experiment: as above; details: Homo sapiens
# HOP-92 = experiment: as above; details: Homo sapiens
# IGROV1 = experiment: as above; details: Homo sapiens
# RXF 393 = experiment: as above; details: Homo sapiens
# MDA-MB-435 = experiment: as above; details: Homo sapiens
# SW-620 = experiment: as above; details: Homo sapiens
# CCRF-CEM = experiment: NCI-60 anticancer screen (SRB; single dose 10 μM and five doses); details: Homo sapiens
# [1] = test system: 60 human tumor cell lines panel; experiment: NCI-60 anticancer screen, whole panel (means and ranges over the cell lines); format: cell-based; details: for activity at 10 µM: Homo sapiens, 48 h, dose of 10 μM
# A498 = experiment: NCI-60 anticancer screen (SRB; single dose and five doses); details: Homo sapiens
# K-562 = experiment: as above; details: Homo sapiens
# NCI/ADR-RES = experiment: as above; details: Homo sapiens
# HT29 = experiment: as above; details: Homo sapiens
# PC-3 = experiment: as above; details: Homo sapiens
# OVCAR-3 = experiment: cells; details: Homo sapiens
# CAKI-1 = experiment: NCI-60 anticancer screen (SRB; single dose and five doses); details: Homo sapiens
# SK-OV-3 = experiment: as above; details: Homo sapiens
# EKVX = experiment: as above; details: Homo sapiens
# [2] = 48 h, read-out: Growth Percentage
# [3] = five doses, mean graph midpoint over all cell lines
structure (smiles),measurement,setting,value
"Cc1[nH]c(=S)sc1C(=O)/C=C/c1ccc(Cl)cc1 [2f, (E)-3-(4-Chlorophenyl)-1-(4-Methyl-2-Thioxo-2,3-Dihydrothiazol-5-yl)Prop-2-En-1-One]",GI50,HS 578T,21.4 µM
same,IC50,HS 578T,> 100 µM
same,activity at 10 µM,HS 578T; [2],48%
same,CC50,HS 578T; read-out: LC50,> 100 µM
same,IC (TGI),HS 578T; read-out: TGI,77.6 µM
same,GI50,DU-145; DU-145,4.9 µM
same,IC50,DU-145; DU-145,8.91 µM
same,activity at 10 µM,"DU-145; DU-145, 48 h, read-out: Growth Percentage",7.29%
same,CC50,"DU-145; DU-145, read-out: LC50",42.7 µM
same,IC (TGI),"DU-145; DU-145, read-out: TGI",17.4 µM
same,GI50,KM12; KM12,4.17 µM
same,IC50,KM12; KM12,8.13 µM
same,activity at 10 µM,"KM12; KM12, 48 h, read-out: Growth Percentage",6.77%
same,CC50,"KM12; KM12, read-out: LC50",45.7 µM
same,IC (TGI),"KM12; KM12, read-out: TGI",16.6 µM
same,GI50,ACHN,13.8 µM
same,IC50,ACHN,24 µM
same,activity at 10 µM,ACHN; [2],34.6%
same,CC50,ACHN; read-out: LC50,51.3 µM
same,IC (TGI),ACHN; read-out: TGI,26.9 µM
same,GI50,A549/ATCC; A549,10.7 µM
same,IC50,A549/ATCC; A549,16.2 µM
same,activity at 10 µM,"A549/ATCC; A549, 48 h, read-out: Growth Percentage",61.1%
same,CC50,"A549/ATCC; A549, read-out: LC50",52.5 µM
same,IC (TGI),"A549/ATCC; A549, read-out: TGI",24 µM
same,GI50,SF-539; SF-539,6.92 µM
same,IC50,SF-539; SF-539,16.2 µM
same,activity at 10 µM,"SF-539; SF-539, 48 h, read-out: Growth Percentage",-30.4%
same,IC (TGI),"SF-539; SF-539, read-out: TGI",20.4 µM
same,GI50,SN12C,4.9 µM
same,IC50,SN12C,10.7 µM
same,activity at 10 µM,SN12C; [2],4.62%
same,CC50,SN12C; read-out: LC50,43.6 µM
same,IC (TGI),SN12C; read-out: TGI,18.2 µM
same,GI50,SK-MEL-28; SK-MEL-28,14.5 µM
same,IC50,SK-MEL-28; SK-MEL-28,26.3 µM
same,activity at 10 µM,"SK-MEL-28; SK-MEL-28, 48 h, read-out: Growth Percentage",45.7%
same,CC50,"SK-MEL-28; SK-MEL-28, read-out: LC50",53.7 µM
same,IC (TGI),"SK-MEL-28; SK-MEL-28, read-out: TGI",28.2 µM
same,GI50,SR,3.55 µM
same,IC50,SR,5.37 µM
same,CC50,SR; read-out: LC50,> 100 µM
same,IC (TGI),SR; read-out: TGI,56.2 µM
same,GI50,"SNB-75; Homo sapiens, SNB-75",2.19 µM
same,IC50,"SNB-75; Homo sapiens, SNB-75",8.51 µM
same,CC50,"SNB-75; Homo sapiens, SNB-75, read-out: LC50",28.8 µM
same,TGI,"SNB-75; five-dose, CNS Cancer SNB-75",6.76 µM
same,GI50,OVCAR-5; OVCAR-5,17.8 µM
same,IC50,OVCAR-5; OVCAR-5,32.4 µM
same,activity at 10 µM,"OVCAR-5; OVCAR-5, 48 h, read-out: Growth Percentage",50.8%
same,CC50,"OVCAR-5; OVCAR-5, read-out: LC50",60.3 µM
same,IC (TGI),"OVCAR-5; OVCAR-5, read-out: TGI",33.1 µM
same,GI50,MDA-MB-231/ATCC; MDA-MB-231,16.2 µM
same,IC50,MDA-MB-231/ATCC; MDA-MB-231,30.9 µM
same,activity at 10 µM,"MDA-MB-231/ATCC; MDA-MB-231, 48 h, read-out: Growth Percentage",39.3%
same,CC50,"MDA-MB-231/ATCC; MDA-MB-231, read-out: LC50",61.7 µM
same,IC (TGI),"MDA-MB-231/ATCC; MDA-MB-231, read-out: TGI",31.6 µM
same,GI50,NCI-H522; NCI-H522,11.8 µM
same,IC50,NCI-H522; NCI-H522,22.4 µM
same,activity at 10 µM,"NCI-H522; NCI-H522, 48 h, read-out: Growth Percentage",13.5%
same,CC50,"NCI-H522; NCI-H522, read-out: LC50",52.5 µM
same,IC (TGI),"NCI-H522; NCI-H522, read-out: TGI",25.1 µM
same,GI50,HOP-92; HOP-92,11.5 µM
same,IC50,HOP-92; HOP-92,30.2 µM
same,activity at 10 µM,"HOP-92; HOP-92, 48 h, read-out: Growth Percentage",34.8%
same,CC50,"HOP-92; HOP-92, read-out: LC50",63.1 µM
same,IC (TGI),"HOP-92; HOP-92, read-out: TGI",26.9 µM
same,GI50,IGROV1; IGROV-1,13.2 µM
same,IC50,IGROV1; IGROV-1,25.7 µM
same,CC50,"IGROV1; IGROV-1, read-out: LC50",93.3 µM
same,IC (TGI),"IGROV1; IGROV-1, read-out: TGI",34.7 µM
same,GI50,RXF 393; RXF 393,5.89 µM
same,IC50,RXF 393; RXF 393,24 µM
same,activity at 10 µM,"RXF 393; RXF 393, 48 h, read-out: Growth Percentage",9.78%
same,CC50,"RXF 393; RXF 393, read-out: LC50",49 µM
same,IC (TGI),"RXF 393; RXF 393, read-out: TGI",19.9 µM
same,GI50,MDA-MB-435; MDA-MB-435,5.5 µM
same,IC50,MDA-MB-435; MDA-MB-435,11 µM
same,activity at 10 µM,"MDA-MB-435; MDA-MB-435, 48 h, read-out: Growth Percentage",22.5%
same,CC50,"MDA-MB-435; MDA-MB-435, read-out: LC50",49 µM
same,IC (TGI),"MDA-MB-435; MDA-MB-435, read-out: TGI",19.1 µM
same,GI50,SW-620; SW-620,3.09 µM
same,IC50,SW-620; SW-620,4.37 µM
same,activity at 10 µM,"SW-620; SW-620, 48 h, read-out: Growth Percentage",8.02%
same,CC50,"SW-620; SW-620, read-out: LC50",38.9 µM
same,IC (TGI),"SW-620; SW-620, read-out: TGI",11.2 µM
same,GI50,CCRF-CEM,2.88 µM
same,activity at 10 µM,CCRF-CEM; [2],3.18%
same,IC50,CCRF-CEM; five doses,2.88 µM
same,IC50,"CCRF-CEM; five-dose, Leukemia CCRF-CEM",3.98 µM
same,IC (TGI),CCRF-CEM; read-out: TGI,11.2 µM
same,activity at 10 µM,"[1]; mean over the tested cell lines, read-out: Mean growth percentage",23.7%
same,activity at 10 µM,"[1]; range over the cell lines, read-out: growth percentages against most of the tested cells (lowest to highest)",-48.1 to 106%
same,Log10GI50 _MID,[1]; [3],-5.13 Molar
same,Log10LC50 _MID,[1]; [3],-4.23 Molar
same,Log10TGI _MID,[1]; [3],-4.63 Molar
same,GI50,A498; A498,15.8 µM
same,IC50,A498; A498,30.9 µM
same,activity at 10 µM,"A498; A498, 48 h, read-out: Growth Percentage, A498, dose of 10 μM",106%
same,CC50,"A498; A498, read-out: LC50",56.2 µM
same,IC (TGI),"A498; A498, read-out: TGI",29.5 µM
same,GI50,K-562; K562,3.89 µM
same,IC50,K-562; K562,4.68 µM
same,activity at 10 µM,"K-562; K562, 48 h, read-out: Growth Percentage",7.94%
same,CC50,"K-562; K562, read-out: LC50",> 100 µM
same,IC (TGI),"K-562; K562, read-out: TGI",> 100 µM
same,GI50,NCI/ADR-RES,3.72 µM
same,IC50,NCI/ADR-RES,7.08 µM
same,activity at 10 µM,NCI/ADR-RES; [2],-8.39%
same,CC50,NCI/ADR-RES; read-out: LC50,77.6 µM
same,IC (TGI),NCI/ADR-RES; read-out: TGI,17.4 µM
same,GI50,HT29; HT-29,6.76 µM
same,IC50,HT29; HT-29,9.55 µM
same,activity at 10 µM,"HT29; HT-29, 48 h, read-out: Growth Percentage",31.2%
same,CC50,"HT29; HT-29, read-out: LC50",53.7 µM
same,IC (TGI),"HT29; HT-29, read-out: TGI",20.9 µM
same,GI50,PC-3; PC-3,5.37 µM
same,IC50,PC-3; PC-3,9.77 µM
same,CC50,"PC-3; PC-3, read-out: LC50",81.3 µM
same,IC (TGI),"PC-3; PC-3, read-out: TGI",23.4 µM
same,GI50,OVCAR-3; OVCAR-3,2.82 µM
same,activity at 10 µM,"OVCAR-3; OVCAR-3, 48 h, read-out: Growth Percentage",-24.2%
same,IC50,"OVCAR-3; OVCAR-3, OVCAR-3, five doses",2.82 µM
same,IC50,"OVCAR-3; OVCAR-3, five-dose, Ovarian Cancer OVCAR-3",6.46 µM
same,CC50,"OVCAR-3; OVCAR-3, read-out: LC50",33.1 µM
same,IC (TGI),"OVCAR-3; OVCAR-3, read-out: TGI",10.7 µM
same,GI50,CAKI-1; CAKI-1,4.47 µM
same,IC50,CAKI-1; CAKI-1,8.71 µM
same,activity at 10 µM,"CAKI-1; CAKI-1, 48 h, read-out: Growth Percentage",53.2%
same,CC50,"CAKI-1; CAKI-1, read-out: LC50",43.6 µM
same,IC (TGI),"CAKI-1; CAKI-1, read-out: TGI",17.4 µM
same,GI50,SK-OV-3; SK-OV-3,15.8 µM
same,IC50,SK-OV-3; SK-OV-3,30.2 µM
same,activity at 10 µM,"SK-OV-3; SK-OV-3, 48 h, read-out: Growth Percentage",60.8%
same,CC50,"SK-OV-3; SK-OV-3, read-out: LC50",66.1 µM
same,IC (TGI),"SK-OV-3; SK-OV-3, read-out: TGI",32.4 µM
same,GI50,EKVX,12.9 µM
same,IC50,EKVX,24 µM
same,activity at 10 µM,EKVX; [2],41%
same,CC50,EKVX; read-out: LC50,52.5 µM
same,IC (TGI),EKVX; read-out: TGI,26.3 µM
